In patent US9821002B2, “Method for alleviating radiation injury with isorhamnetin-3-O-β-D-glucoside” (Sinotai Oncology Associate., Ltd., priority 2015, dated 2017):

Experiments:
Assay type in all cases: cell-based, mouse
[1] = system: NMuMG cells; experiment: Cell cycle analysis (PI flow cytometry) after X-ray irradiation; details: 2 h pretreatment, X-ray 20 Gy, 96 hours, mean ± SEM
Protocol: Four groups of NMuMG cells (i.e., a normal control group, an X-ray control group, and two experimental groups referred to as Experimental Groups 1 to 2) were prepared based on the procedure set forth in “Source and cultivation of cell lines” of “Experimental materials”. NMuMG cells in each group were cultivated using 5 mL of a corresponding medium shown in Table 1 and a 6-cm Petri dish in an amount of 2.5×10^5 cells per dish. The cultivation was conducted in an incubator (37° C., 5% CO2) for 24 hours.
Subsequently, medium was replaced with fresh medium, and a suitable amount of isorhamnetin-3-O-β-D-glucoside stock solution was added to the obtained culture in each of Experimental Groups 1 and 2, such that the final concentration of isorhamnetin-3-O-β-D-glucoside in the culture in Experimental Group 1 was 15 μM, and the final concentration of isorhamnetin-3-O-β-D-glucoside in the culture in Experimental Group 2 was 30 μM. Isorhamnetin-3-O-β-D-glucoside stock solution was not added to the cultures in the normal control group and the X-ray control group.
The culture in each group was then cultivated in an incubator (37° C., 5% CO2) for two hours. The resultant culture was used for the following cell cycle analysis.
The cultures in the X-ray control group and Experimental Groups 1 to 2, prepared according to section A of “Experimental procedures” in this example, were subjected to X-ray irradiation using a linear accelerator at a dose of 20 Gy. The culture in the normal control group received no X-ray irradiation treatment. The culture in each group was cultivated in an incubator (37° C., 5% CO2) for 96 hours, followed by centrifugation at 25° C. and 1200 rpm for 3 minutes. The supernatant was removed, and the precipitate thus obtained was washed with cold PBS (pH 7.4), followed by fixing the cells with 1 mL of cold methanol. The fixed cells thus obtained were left standing at −20° C. overnight. Following this, the fixed cells were washed with cold PBS (pH 7.4), and 250 μL of cold DNA dying solution which was prepared in ddH2O, containing 200 μg/mL RNase A solution (Sigma-Aldrich), 50 μg/mL propidium iodide (PI)(Sigma-Aldrich), and 0.1% (v/v) Triton X-100, was added to re-suspend the cells in each group. The cells were kept in the dark for 30 minutes at 37° C. to obtain stained cells.
Subsequently, the stained cells thus obtained were subjected to cell cycle analysis using BD Accuri™ C6 flow cytometer (BD Biosciences), and 1.0×10^6 cells were analyzed in each analysis. The cells emitted fluorescence when excited by a laser beam of argon ion at 488 nm, and the fluorescence intensity was detected at a wavelength of 585 nm. The percentage of the cells in each cell cycle phase was analyzed using BD Accuri™ C6 software (BD Biosciences).

[2] = system: cleaved caspase-9 in BNL CL.2 cells; experiment: Expression profile of cleaved caspase-9 (Western Blotting) after X-ray irradiation; details: 5 and 30 μM, 2 h pretreatment, X-ray 15 Gy, 48 hours, normalized to β-actin
From the text: (§1) Four groups of BNL CL.2 cells (i.e., a normal control group referred to as Normal Control Group 1-A, an X-ray control group referred to as X-Ray Control Group 1-A, and two experimental groups referred to as Experimental Groups 1-A to 2-A), and six groups of NMuMG cells (i.e., a normal control group referred to as Normal Control Group 1-B, an X-ray control group referred to as X-Ray Control Group 1-B, two isorhamnetin groups referred to as Isorhamnetin Groups 1 to 2, and two experimental groups referred to as Experimental Groups 1-B to 2-B), were prepared based on the procedure set forth in “Source and cultivation of cell lines” of “Experimental materials”. BNL CL.2 cells in each group were cultivated using 5 mL of a corresponding medium shown in Table 1 and a 6-cm Petri dish in an amount of 2×10^5 cells per dish. […]
(§2) Subsequently, the culture in each group was cultivated in an incubator (37° C., 5% CO2) for 48 hours, and 120 μL of lysis buffer containing CelLytic™ M protein extraction reagent (Sigma-Aldrich) and proteinase inhibitor cocktail (Sigma-Aldrich) was added to the culture in each group, followed by mixing evenly. […] Protein concentration in the total protein sample was determined by means of the Bio-Rad Protein Assay Kit. […]
(§3) Subsequently, ImageScanner Imaging Software was used for analysis, such that the corresponding protein expression level was semi-quantitatively calculated. […]

[3] = system: cleaved caspase-9 in NMuMG cells; experiment: as above; details: 15 and 30 μM, 2 h pretreatment, X-ray 15 Gy, 48 hours, normalized to β-actin
From the text: as §1, §2, §3

Compound: COc1cc(-c2oc3cc(O)cc(O)c3c(=O)c2O[C@@H]2O[C@H](CO)[C@@H](O)[C@H](O)[C@H]2O)ccc1O [isorhamnetin-3-O-β-D-glucoside]
- The percentage of the cells in each cell cycle phase: G0/G1 ([1]; 15 μM): 21 ± 4.31 %
- The percentage of the cells in each cell cycle phase: G2/M ([1]; 15 μM): 58.76 ± 8.97%
- The percentage of the cells in each cell cycle phase: S ([1]; 15 μM): 6.4 ± 0.28%
- The percentage of the cells in each cell cycle phase: Sub-G1 ([1]; 15 μM): 16.11 ± 2.03 %
- The percentage of the cells in each cell cycle phase: G0/G1 ([1]; 30 μM): 22.25 ± 4.87 %
- The percentage of the cells in each cell cycle phase: G2/M ([1]; 30 μM): 59.63 ± 10.78%
- The percentage of the cells in each cell cycle phase: S ([1]; 30 μM): 5.88 ± 1.2%
- The percentage of the cells in each cell cycle phase: Sub-G1 ([1]; 30 μM): 13.88 ± 1.46 %
- expression level of cleaved caspase-9 versus X-ray control group [2]: significant reduction in expression level of cleaved caspase-9
- expression level of cleaved caspase-9 versus X-ray control group [3]: significant reduction in expression level of cleaved caspase-9
